Laboratory results reported in the supplement of paper PMC11451515.

Test system: NOMO1
Assay: cell viability relative to DMSO control; higher = less cytotoxic
Settings: 48 h
Summary of the method: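 Viability is a per-plate percentage relative to DMSO wells, with cell-free wells as background. CellTiter-Glo One luminescence was read after 48 h at 37°C on 1536-well plates (5 μl) of NOMO1 or SEM (500 cells/well) or P12-Ichikawa (1000 cells/well) leukemia cells. The cells had been adapted for at least four passages in each medium and pin-dosed with library compounds in DMSO from 47 μM to 0.79 nM in 11 threefold steps.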

[1] = HPLM + 10% dialyzed FBS, 0.000781 µM
[2] = HPLM + 10% dialyzed FBS, 0.00234 µM
[3] = HPLM + 10% dialyzed FBS, 0.00702 µM
[4] = HPLM + 10% dialyzed FBS, 0.0211 µM
[5] = HPLM + 10% dialyzed FBS, 0.0632 µM
[6] = HPLM + 10% dialyzed FBS, 0.19 µM
[7] = HPLM + 10% dialyzed FBS, 0.569 µM
[8] = HPLM + 10% dialyzed FBS, 1.71 µM
[9] = HPLM + 10% dialyzed FBS, 5.12 µM
[10] = HPLM + 10% dialyzed FBS, 15.4 µM
[11] = HPLM + 10% dialyzed FBS, 46.1 µM
[12] = RPMI 5 mM glucose + 10% FBS, 0.000781 µM
[13] = RPMI 5 mM glucose + 10% FBS, 0.00234 µM
[14] = RPMI 5 mM glucose + 10% FBS, 0.00702 µM
[15] = RPMI 5 mM glucose + 10% FBS, 0.0211 µM
[16] = RPMI 5 mM glucose + 10% FBS, 0.0632 µM
[17] = RPMI 5 mM glucose + 10% FBS, 0.19 µM
[18] = RPMI 5 mM glucose + 10% FBS, 0.569 µM
[19] = RPMI 5 mM glucose + 10% FBS, 1.71 µM
[20] = RPMI 5 mM glucose + 10% FBS, 5.12 µM
[21] = RPMI 5 mM glucose + 10% FBS, 15.4 µM
[22] = RPMI 5 mM glucose + 10% FBS, 46.1 µM
[23] = RPMI 5 mM glucose + 10% dialyzed FBS, 0.000781 µM
[24] = RPMI 5 mM glucose + 10% dialyzed FBS, 0.00234 µM
[25] = RPMI 5 mM glucose + 10% dialyzed FBS, 0.00702 µM
[26] = RPMI 5 mM glucose + 10% dialyzed FBS, 0.0211 µM
[27] = RPMI 5 mM glucose + 10% dialyzed FBS, 0.0632 µM
[28] = RPMI 5 mM glucose + 10% dialyzed FBS, 0.19 µM
[29] = RPMI 5 mM glucose + 10% dialyzed FBS, 0.569 µM
[30] = RPMI 5 mM glucose + 10% dialyzed FBS, 1.71 µM
[31] = RPMI 5 mM glucose + 10% dialyzed FBS, 5.12 µM
[32] = RPMI 5 mM glucose + 10% dialyzed FBS, 15.4 µM
[33] = RPMI 5 mM glucose + 10% dialyzed FBS, 46.1 µM

CC\12CCC(=O)\C=C1CCC3C2CCC4(C)C3CCC4(O)C#C (centres undefined)
cell viability [1]: 98.9% | cell viability [2]: 101% | cell viability [3]: 106% | cell viability [4]: 91.1% | cell viability [5]: 112% | cell viability [6]: 100% | cell viability [7]: 98.3% | cell viability [8]: 98.8% | cell viability [9]: 77.5% | cell viability [10]: 86.4% | cell viability [11]: 88% | cell viability [12]: 89.9% | cell viability [13]: 93.2% | cell viability [14]: 97.4% | cell viability [15]: 103% | cell viability [16]: 86.6% | cell viability [17]: 94.9% | cell viability [18]: 88.8% | cell viability [19]: 84% | cell viability [20]: 87.2% | cell viability [21]: 88.1% | cell viability [22]: 74.7% | cell viability [23]: 99.8% | cell viability [24]: 101% | cell viability [25]: 95.8% | cell viability [26]: 95.5% | cell viability [27]: 99.6% | cell viability [28]: 96.1% | cell viability [29]: 74.9% | cell viability [30]: 79.2% | cell viability [31]: 73.9% | cell viability [32]: 83.5% | cell viability [33]: 85.7%

C/C(=N\NC(=S)N1CCC1)c1ccccn1
cell viability [1]: 104% | cell viability [2]: 76.1% | cell viability [3]: 48.5% | cell viability [4]: 29.9% | cell viability [5]: 20.8% | cell viability [6]: 6.85% | cell viability [7]: 5.67% | cell viability [8]: 4.05% | cell viability [9]: 2.98% | cell viability [10]: 15.2% | cell viability [11]: 5.74% | cell viability [12]: 107% | cell viability [13]: 96.5% | cell viability [14]: 74.6% | cell viability [15]: 15.3% | cell viability [16]: 13% | cell viability [17]: 7.95% | cell viability [18]: 6.53% | cell viability [19]: 8.3% | cell viability [20]: 2.84% | cell viability [21]: 13.7% | cell viability [22]: 11.8% | cell viability [23]: 99.3% | cell viability [24]: 93.6% | cell viability [25]: 37.7% | cell viability [26]: 19.6% | cell viability [27]: 17.9% | cell viability [28]: 8.08% | cell viability [29]: 6.69% | cell viability [30]: 5.23% | cell viability [31]: 2.95% | cell viability [32]: 8.3% | cell viability [33]: 13.1%

CC(C)=CCC/C(C)=C/CC/C(C)=C/CC/C(C)=C/CC/C(C)=C/CC/C(C)=C/CC/C(C)=C/CC/C(C)=C/CC/C(C)=C/CO
cell viability [1]: 117% | cell viability [2]: 123% | cell viability [3]: 105% | cell viability [4]: 92.7% | cell viability [5]: 107% | cell viability [6]: 114% | cell viability [7]: 112% | cell viability [8]: 117% | cell viability [9]: 100% | cell viability [10]: 96.6% | cell viability [11]: 102% | cell viability [12]: 95.7% | cell viability [13]: 96.3% | cell viability [14]: 108% | cell viability [15]: 100% | cell viability [16]: 101% | cell viability [17]: 105% | cell viability [18]: 115% | cell viability [19]: 104% | cell viability [20]: 92.6% | cell viability [21]: 92.8% | cell viability [22]: 88.3% | cell viability [23]: 92.2% | cell viability [24]: 91% | cell viability [25]: 111% | cell viability [26]: 93.6% | cell viability [27]: 103% | cell viability [28]: 113% | cell viability [29]: 94.4% | cell viability [30]: 95.6% | cell viability [31]: 91.6% | cell viability [32]: 87.7% | cell viability [33]: 86.9%

C=C1C(=O)[C@@]23C(CC[C@@H]1[C@H]2O)[C@@]12CO[C@]3(O)[C@@H](O)[C@@H]1C(C)(C)CC[C@@H]2O (some centres undefined)
cell viability [1]: 119% | cell viability [2]: 125% | cell viability [3]: 124% | cell viability [4]: 127% | cell viability [5]: 121% | cell viability [6]: 117% | cell viability [7]: 125% | cell viability [8]: 147% | cell viability [9]: 111% | cell viability [10]: 82% | cell viability [11]: 10.6% | cell viability [12]: 118% | cell viability [13]: 122% | cell viability [14]: 115% | cell viability [15]: 111% | cell viability [16]: 135% | cell viability [17]: 130% | cell viability [18]: 133% | cell viability [19]: 137% | cell viability [20]: 129% | cell viability [21]: 98.4% | cell viability [22]: 8.83% | cell viability [23]: 120% | cell viability [24]: 123% | cell viability [25]: 127% | cell viability [26]: 122% | cell viability [27]: 121% | cell viability [28]: 127% | cell viability [29]: 143% | cell viability [30]: 138% | cell viability [31]: 124% | cell viability [32]: 114% | cell viability [33]: 14%

Cc1ccc([N+](=O)[O-])cc1[S+](=O)([O-])N(C)/N=C/c1cnc2ccc(Br)cn12
cell viability [1]: 110% | cell viability [2]: 116% | cell viability [3]: 107% | cell viability [4]: 89.8% | cell viability [5]: 56.5% | cell viability [6]: 12% | cell viability [7]: 6.54% | cell viability [8]: 5.77% | cell viability [9]: 4.83% | cell viability [10]: 4.05% | cell viability [11]: 3.68% | cell viability [12]: 121% | cell viability [13]: 105% | cell viability [14]: 95.9% | cell viability [15]: 98.7% | cell viability [16]: 84.6% | cell viability [17]: 17.3% | cell viability [18]: 7.83% | cell viability [19]: 5.79% | cell viability [20]: 5.05% | cell viability [21]: 4.32% | cell viability [22]: 4.08% | cell viability [23]: 102% | cell viability [24]: 93.9% | cell viability [25]: 100% | cell viability [26]: 94.2% | cell viability [27]: 76.1% | cell viability [28]: 19.2% | cell viability [29]: 5.29% | cell viability [30]: 4.54% | cell viability [31]: 4.24% | cell viability [32]: 4% | cell viability [33]: 2.94%

N[C@H]2CN(CC12CC1)c3c(F)cc4c(c3Cl)[N@@](C=C(C4=O)C(=O)O)C5C[C@H]5F (some centres undefined)
cell viability [1]: 98.5% | cell viability [2]: 110% | cell viability [3]: 98.1% | cell viability [4]: 102% | cell viability [5]: 98.2% | cell viability [6]: 89.5% | cell viability [7]: 83.2% | cell viability [8]: 84% | cell viability [9]: 94% | cell viability [10]: 50.4% | cell viability [11]: 92.1% | cell viability [12]: 83.7% | cell viability [13]: 92% | cell viability [14]: 89.1% | cell viability [15]: 78.6% | cell viability [16]: 90.2% | cell viability [17]: 83.5% | cell viability [18]: 72.1% | cell viability [19]: 82% | cell viability [20]: 75.2% | cell viability [21]: 48.4% | cell viability [22]: 97.1% | cell viability [23]: 76.7% | cell viability [24]: 91% | cell viability [25]: 91.2% | cell viability [26]: 94.9% | cell viability [27]: 98.1% | cell viability [28]: 86.5% | cell viability [29]: 81.9% | cell viability [30]: 91.3% | cell viability [31]: 89.8% | cell viability [32]: 69% | cell viability [33]: 77%

CC1(CN2CCC(n3c(=O)[nH]c4ccccc43)CC2)OCc2ccccc2-n2cccc21 (centres undefined)
cell viability [1]: 128% | cell viability [2]: 108% | cell viability [3]: 102% | cell viability [4]: 105% | cell viability [5]: 96.8% | cell viability [6]: 105% | cell viability [7]: 104% | cell viability [8]: 108% | cell viability [9]: 102% | cell viability [10]: 59.3% | cell viability [11]: 75.6% | cell viability [12]: 86.7% | cell viability [13]: 103% | cell viability [14]: 95.4% | cell viability [15]: 91.4% | cell viability [16]: 104% | cell viability [17]: 107% | cell viability [18]: 91.3% | cell viability [19]: 96% | cell viability [20]: 92.5% | cell viability [21]: 87.8% | cell viability [22]: 84% | cell viability [23]: 105% | cell viability [24]: 111% | cell viability [25]: 103% | cell viability [26]: 93.2% | cell viability [27]: 96.7% | cell viability [28]: 98.2% | cell viability [29]: 95.9% | cell viability [30]: 92.4% | cell viability [31]: 90.9% | cell viability [32]: 79.5% | cell viability [33]: 68.5%

CC(C)(S)[C@@H](N)C(=O)O
cell viability [1]: 111% | cell viability [2]: 118% | cell viability [3]: 97.1% | cell viability [4]: 136% | cell viability [5]: 132% | cell viability [6]: 111% | cell viability [7]: 109% | cell viability [8]: 133% | cell viability [9]: 114% | cell viability [10]: 128% | cell viability [11]: 80.6% | cell viability [12]: 103% | cell viability [13]: 106% | cell viability [14]: 113% | cell viability [15]: 103% | cell viability [16]: 118% | cell viability [17]: 115% | cell viability [18]: 103% | cell viability [19]: 105% | cell viability [20]: 115% | cell viability [21]: 111% | cell viability [22]: 106% | cell viability [23]: 97.5% | cell viability [24]: 94.7% | cell viability [25]: 112% | cell viability [26]: 115% | cell viability [27]: 124% | cell viability [28]: 117% | cell viability [29]: 108% | cell viability [30]: 118% | cell viability [31]: 118% | cell viability [32]: 108% | cell viability [33]: 62.1%
